Results published in ChEMBL document CHEMBL1146896, “Synthesis and monoamine transporter affinity of 2beta-carbomethoxy-3beta-(4'-p-substituted phenyl)-piperidine analogs of cocaine” (Bioorg Med Chem Lett, 2006).

Experiments:
[1] = target: Norepinephrine transporter (Rattus norvegicus, UniProt Q9WTR4); assay: Displacement of [3H]nisoxetine from NET in rat cerebral cortex; type: tissue-based
[2] = target: Sodium-dependent dopamine transporter (Rattus norvegicus, UniProt P23977); assay: Displacement of [3H]beta-CIT from DAT in rat caudate homogenate
[3] = target: Sodium-dependent serotonin transporter (Rattus norvegicus, UniProt P31652); assay: Displacement of [3H]cyanoimipramine from SERT in rat cerebral cortex homogenate; type: tissue-based
[4] = target: Monoamine transporters; serotonin & dopamine (Rattus norvegicus) (UniProt P31652+P23977); assay: Selectivity for SERT over DAT; type: protein assay
[5] = target: Monoamine transporters; Norepinephrine & serotonin (Rattus norvegicus) (UniProt P31652+Q9WTR4); assay: Selectivity for SERT over NET; type: protein assay

Norepinephrine transporter, sequence (Q9WTR4 whole entry): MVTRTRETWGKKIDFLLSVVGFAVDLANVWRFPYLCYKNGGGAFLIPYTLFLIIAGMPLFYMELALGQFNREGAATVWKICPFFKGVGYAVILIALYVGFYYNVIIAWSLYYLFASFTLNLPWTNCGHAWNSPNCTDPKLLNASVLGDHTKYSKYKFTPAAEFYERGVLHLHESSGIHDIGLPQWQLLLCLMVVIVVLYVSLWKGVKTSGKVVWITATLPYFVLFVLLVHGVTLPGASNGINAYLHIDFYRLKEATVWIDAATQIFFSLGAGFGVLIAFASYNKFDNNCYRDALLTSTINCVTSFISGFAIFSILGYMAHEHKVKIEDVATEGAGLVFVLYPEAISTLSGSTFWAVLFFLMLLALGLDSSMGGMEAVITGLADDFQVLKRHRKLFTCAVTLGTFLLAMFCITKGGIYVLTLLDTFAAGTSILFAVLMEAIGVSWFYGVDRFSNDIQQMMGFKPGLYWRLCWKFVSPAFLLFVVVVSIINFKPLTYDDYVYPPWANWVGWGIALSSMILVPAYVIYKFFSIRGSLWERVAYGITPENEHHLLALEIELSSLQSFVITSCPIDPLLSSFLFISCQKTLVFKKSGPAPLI
Monoamine transporters; serotonin & dopamine (Rattus norvegicus), sequence (P23977 whole entry, looked up): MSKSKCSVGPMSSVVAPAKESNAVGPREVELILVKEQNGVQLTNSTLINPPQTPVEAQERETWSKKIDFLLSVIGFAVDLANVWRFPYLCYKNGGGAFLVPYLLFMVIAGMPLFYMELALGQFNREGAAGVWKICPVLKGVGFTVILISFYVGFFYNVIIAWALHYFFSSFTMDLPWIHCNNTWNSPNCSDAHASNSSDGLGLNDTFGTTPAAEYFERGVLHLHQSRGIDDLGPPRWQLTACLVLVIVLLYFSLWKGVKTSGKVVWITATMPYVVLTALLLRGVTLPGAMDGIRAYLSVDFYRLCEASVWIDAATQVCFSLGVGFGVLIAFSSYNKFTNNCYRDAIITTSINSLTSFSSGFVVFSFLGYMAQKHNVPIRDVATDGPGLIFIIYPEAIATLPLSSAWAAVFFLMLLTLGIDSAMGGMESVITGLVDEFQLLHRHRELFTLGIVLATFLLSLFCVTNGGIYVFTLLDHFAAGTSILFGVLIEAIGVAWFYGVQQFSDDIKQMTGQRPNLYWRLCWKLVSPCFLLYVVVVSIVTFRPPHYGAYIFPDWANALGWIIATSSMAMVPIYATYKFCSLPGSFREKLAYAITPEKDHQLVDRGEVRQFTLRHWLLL
Monoamine transporters; serotonin & dopamine (Rattus norvegicus), sequence (P31652 whole entry, looked up): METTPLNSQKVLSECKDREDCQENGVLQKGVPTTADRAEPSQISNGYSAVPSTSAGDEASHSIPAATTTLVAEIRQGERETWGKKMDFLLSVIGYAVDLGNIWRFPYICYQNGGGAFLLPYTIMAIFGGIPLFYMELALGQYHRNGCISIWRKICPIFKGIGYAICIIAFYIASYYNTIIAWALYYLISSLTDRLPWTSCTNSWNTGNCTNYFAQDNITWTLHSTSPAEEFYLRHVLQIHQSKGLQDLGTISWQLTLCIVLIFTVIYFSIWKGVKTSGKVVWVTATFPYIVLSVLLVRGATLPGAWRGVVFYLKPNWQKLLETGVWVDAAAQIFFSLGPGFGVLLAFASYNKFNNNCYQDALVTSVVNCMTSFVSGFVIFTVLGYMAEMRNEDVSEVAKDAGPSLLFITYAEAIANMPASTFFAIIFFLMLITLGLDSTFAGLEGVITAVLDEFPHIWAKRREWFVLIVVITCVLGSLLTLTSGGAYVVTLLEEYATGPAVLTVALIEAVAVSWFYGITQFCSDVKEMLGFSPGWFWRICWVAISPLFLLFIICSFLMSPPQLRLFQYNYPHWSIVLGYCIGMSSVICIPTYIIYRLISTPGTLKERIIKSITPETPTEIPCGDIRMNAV
Sodium-dependent dopamine transporter, sequence (P23977 whole entry): as the sequence (P23977 whole entry, looked up) above
Sodium-dependent serotonin transporter, sequence (P31652 whole entry): as the sequence (P31652 whole entry, looked up) above

Structure (SMILES)	Ki [1]	Ki [2]	Ki [3]	Ratio Ki [4]	Ratio Ki [5]
COC(=O)[C@@H]1CN(C)CC[C@@H]1c1ccc(-c2nccs2)cc1 (racemic) [listing 1 of 2 here]	> 20000 nM	> 10000 nM	> 5000 nM		
COC(=O)[C@@H]1CN(C)CC[C@@H]1c1ccc(-c2ccco2)cc1	> 50000 nM	205 nM	18.5 nM	11.1	> 2700
COC(=O)[C@@H]1CN(C)CC[C@@H]1c1ccc(-c2nccs2)cc1 [listing 1 of 2 here]	> 50000 nM		> 10000 nM		
COC(=O)[C@@H]1CN(C)CC[C@@H]1c1ccc(-c2cccs2)cc1	> 50000 nM	≥ 5000 nM	90.8 nM	> 55	> 551
COC(=O)[C@@H]1CN(C)CC[C@@H]1c1ccc(/C=C\I)cc1	> 30000 nM	123 nM	7.9 nM	15.6	> 3800
COC(=O)[C@@H]1CN(C)CC[C@@H]1c1ccc(-c2ccsc2)cc1	> 10000 nM	598 nM	31.8 nM	188	> 3140
COC(=O)[C@H]1[C@@H](c2ccc(I)cc2)C[C@@H]2CC[C@H]1N2C	2.8 nM	0.96 nM		2.1	6.1
COC(=O)[C@@H]1CN(C)CC[C@@H]1c1ccc(I)cc1		195 nM	167 nM	11.2	59.9
COC(=O)[C@@H]1CN(C)CC[C@@H]1c1ccc(-c2nccs2)cc1 [listing 2 of 2 here]				1	5
COC(=O)[C@@H]1CN(C)CC[C@@H]1c1ccc(-c2nccs2)cc1 (racemic) [listing 2 of 2 here]				2	4
COC(=O)[C@@H]1CN(C)CC[C@@H]1c1ccc(C=O)cc1	> 30000 nM	> 10000 nM	1730 nM	5.8	17.3
